From patent US8389526B2, “3-heteroarylmethyl-imidazo[1,2-b]pyridazin-6-yl derivatives” (Novartis AG, priority 2009, dated 2013) come the findings set out here.

Experiment [1] addresses T1, c-Met receptor tyrosine kinase, GST-c-Met(969-1390) (Homo sapiens, UniProt P08581).
T1 construct: made in house
Kind of experiment: EPK c-Met profiling assay (LanthaScreen TR-FRET kinase assay). It counts as biochemical. To be noted: 2 μM ATP, 0.3 nM enzyme, 60 minutes at room temperature. A digest of the protocol: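 Recombinant GST-c-Met(969-1390) cytoplasmic domain, 0.3 nM, phosphorylating 50 nM Fluorescein-PolyEAY with 2 μM ATP, 10 mM MgCl2, 3 mM MnCl2, 60 min at room temperature. EDTA-stopped; phosphoproduct detected by TR-FRET with Tb-PY20 antibody, end-point read. Final compound 0.003-10 μM over 8 concentrations.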
(In general: Time-resolved FRET reads energy transfer from a long-lived donor to a nearby acceptor.)

In experiment [2] the test system is MET-amplified gastric cancer cell line GTL-16. Kind of experiment: GTL-16 proliferation assay (MTS). It counts as cell-based. To be noted: Homo sapiens, GTL-16 cells, 72 h incubation. A digest of the protocol: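 GTL-16 cells were seeded at 3000/well in DMEM with 10% FCS. After 24 h they were treated in triplicate with a 10-point, 3-fold dilution series ([…]; DMSO-only control) for 72 h. Viable cells were measured by MTS, with OD 490 nm read after 30 min.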

The target in another experiment is T2, c-Met (Homo sapiens, UniProt P08581).
T2 construct: adapted to measure the phosphorylation of endogenous cellular proteins in cell lysates; endogenous in cells; host or cells: GTL-16
T2 sequence (P08581 25-1390): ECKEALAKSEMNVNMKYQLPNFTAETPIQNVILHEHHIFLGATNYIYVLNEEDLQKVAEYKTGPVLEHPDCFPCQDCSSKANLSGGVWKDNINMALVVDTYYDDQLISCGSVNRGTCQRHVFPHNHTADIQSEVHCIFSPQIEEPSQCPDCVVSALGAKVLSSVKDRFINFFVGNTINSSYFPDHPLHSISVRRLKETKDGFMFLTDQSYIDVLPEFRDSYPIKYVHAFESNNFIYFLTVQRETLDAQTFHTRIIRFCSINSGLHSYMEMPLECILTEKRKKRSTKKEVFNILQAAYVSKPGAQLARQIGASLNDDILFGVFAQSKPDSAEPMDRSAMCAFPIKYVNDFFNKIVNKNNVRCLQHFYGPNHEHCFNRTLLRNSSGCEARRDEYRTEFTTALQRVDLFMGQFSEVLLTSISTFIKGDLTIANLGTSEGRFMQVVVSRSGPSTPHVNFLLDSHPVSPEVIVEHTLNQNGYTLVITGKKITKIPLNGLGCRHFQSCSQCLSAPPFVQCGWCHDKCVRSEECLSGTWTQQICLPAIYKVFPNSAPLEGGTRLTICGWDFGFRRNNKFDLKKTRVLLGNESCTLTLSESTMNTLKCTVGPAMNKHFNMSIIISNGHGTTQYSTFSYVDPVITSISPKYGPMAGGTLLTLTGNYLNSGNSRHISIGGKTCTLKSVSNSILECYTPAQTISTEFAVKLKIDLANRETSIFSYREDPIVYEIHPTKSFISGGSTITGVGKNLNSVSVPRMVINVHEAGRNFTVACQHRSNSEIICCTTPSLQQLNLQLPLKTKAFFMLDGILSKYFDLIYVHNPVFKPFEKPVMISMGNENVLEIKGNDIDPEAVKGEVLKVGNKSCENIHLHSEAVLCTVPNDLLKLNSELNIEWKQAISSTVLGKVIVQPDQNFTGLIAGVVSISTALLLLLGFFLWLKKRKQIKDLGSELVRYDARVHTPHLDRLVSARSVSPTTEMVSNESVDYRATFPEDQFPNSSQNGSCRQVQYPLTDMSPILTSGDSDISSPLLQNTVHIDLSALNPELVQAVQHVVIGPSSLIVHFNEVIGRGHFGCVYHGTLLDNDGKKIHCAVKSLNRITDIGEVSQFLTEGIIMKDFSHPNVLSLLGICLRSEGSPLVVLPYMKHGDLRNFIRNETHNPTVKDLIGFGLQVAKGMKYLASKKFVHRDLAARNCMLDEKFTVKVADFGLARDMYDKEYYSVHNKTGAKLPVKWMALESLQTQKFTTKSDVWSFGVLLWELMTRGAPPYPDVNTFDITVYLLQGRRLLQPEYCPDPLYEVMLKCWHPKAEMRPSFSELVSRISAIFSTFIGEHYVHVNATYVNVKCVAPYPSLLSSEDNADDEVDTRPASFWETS
Kind of experiment: GTL-16 c-Met autophosphorylation measured by AlphaScreen detection. It counts as cell-based. The note with it: GTL-16 cells, 1 h incubation, AlphaScreen p-c-Met; read-out: GTL-16 IC50 c-Met phosphorylation. A digest of the protocol: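 GTL-16 MET-amplified gastric cancer cells, serum-free DMEM with 0.1% BSA, exposed to 8-point compound dilutions for 1 h at 37° C (0.11% DMSO final). Lysates probed for phospho-c-Met by AlphaScreen using anti-c-Met antibody, biotinylated PY20 phosphotyrosine antibody, Protein A acceptor and streptavidin donor beads.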

pIC50: −log10 of the molar value. A value given as a limit tells only on which side of the number the result lay.

T1 sequence (P08581 969-1390): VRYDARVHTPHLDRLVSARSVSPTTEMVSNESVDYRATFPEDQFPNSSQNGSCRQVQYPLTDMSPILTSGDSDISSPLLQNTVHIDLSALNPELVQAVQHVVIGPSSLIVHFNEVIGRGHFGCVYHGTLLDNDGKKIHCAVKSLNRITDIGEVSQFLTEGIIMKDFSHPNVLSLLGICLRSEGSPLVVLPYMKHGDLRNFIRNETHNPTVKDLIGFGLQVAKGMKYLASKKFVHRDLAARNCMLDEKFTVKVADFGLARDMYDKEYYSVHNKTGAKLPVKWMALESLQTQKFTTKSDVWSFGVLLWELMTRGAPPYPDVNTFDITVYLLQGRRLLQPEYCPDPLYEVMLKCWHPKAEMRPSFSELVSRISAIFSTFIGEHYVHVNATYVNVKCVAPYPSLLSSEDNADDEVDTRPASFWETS

For the molecule `CC(c1cc2cccnc2cc1F)c1cnc2ccc(N3CCN(C)C(=O)C3)nn12` (racemic) [Example 40, (rac)-4-{3-[1-(7-Fluoro-quinolin-6-yl)-ethyl]-imidazo[1,2-b]pyridazin-6-yl}-1-methyl-piperazin-2-one], the figures for the pIC50 (in experiment [1]; in experiment [2]; at c-Met) were 7.41, 6.83 and 7.96, respectively.
Take `C[C@@H](c1c(F)cc2c(cnn2C)c1F)c1cnc2ccc(N3CCNC(=O)C3)nn12` [Example 52, 4-{3-[(S)-1-(4,6-Difluoro-1-methyl-1H-indazol-5-yl)-ethyl]-imidazo[1,2-b]pyridazin-6-yl}-piperazin-2-one]: the pIC50 is more than 8.52 in experiment [1], 7.96 in experiment [2] and 8.66 on c-Met.
Turning to `CC(c1c(F)cc2c(cnn2C(C)C)c1F)c1cnc2ccc(N3CCN(C)C(=O)C3)nn12` (racemic) [Example 56, (rac)-4-(3-(1-(4,6-difluoro-1-isopropyl-1H-indazol-5-yl)ethyl)imidazo[1,2-b]pyridazin-6-yl)-1-methylpiperazin-2-one], the pIC50 in experiment [1] is 7.57; in experiment [2], 7.31; at c-Met, 8.15.
For `CC(c1c(F)cc2c(cnn2C)c1F)c1cnc2ccc(N3CCNC(=O)C3)nn12` (racemic) [Example 51] the same measures were 7.66, 7.80 and 8.10.
Regarding `CC(c1c(F)cc2ncccc2c1F)c1cnc2ccc(N3CCNC(=O)C3)nn12` (racemic) [Example 3, (rac)-4-{3-[1-(5,7-Difluoro-quinolin-6-yl)-ethyl]-imidazo[1,2-b]pyridazin-6-yl}-piperazin-2-one], the pIC50 in experiment [1] is 8.28; in experiment [2] it was 8.22; on c-Met it was more than 8.52.
Turning to `CC(c1c(F)cc2ncccc2c1F)c1cnc2ccc(N3CCN(C(N)=O)CC3)nn12` (racemic) [Example 15, (rac)-4-{3-[1-(5,7-Difluoro-quinolin-6-yl)-ethyl]-imidazo[1,2-b]pyridazin-6-yl}-piperazine-1-carboxylic acid amide], the pIC50 in experiment [1] was 8.27; in experiment [2], 7.74; on c-Met, 8.08.
For `CN1CCN(c2ccc3ncc(Cc4c(F)cc5ncccc5c4F)n3n2)CC1=O` [Example 30, 4-[3-(5,7-Difluoro-quinolin-6-ylmethyl)-imidazo[1,2-b]pyridazin-6-yl]-1-methyl-piperazin-2-one], the negative-log IC50 (pIC50) in experiment [1] was 8.18; in experiment [2] it was 7.43; at c-Met, more than 8.52.
For `CN1CCN(c2ccc3ncc(Cc4c(F)cc5ncccc5c4F)n3n2)CC1` [Example 33, 5,7-Difluoro-6-[6-(4-methyl-piperazin-1-yl)-imidazo[1,2-b]pyridazin-3-ylmethyl]-quinoline] the same measures were 7.85, 7.34 and 8.05.
For `CC(c1c(F)cc2ncccc2c1F)c1cnc2ccc(N3CCN(c4ccccc4)C(=O)C3)nn12` (racemic) [Example 22, (rac)-4-{3-[1-(5,7-Difluoro-quinolin-6-yl)-ethyl]-imidazo[1,2-b]pyridazin-6-yl}-1-phenylpiperazin-2-one] the same measures were 7.85, 7.82 and 8.22.
For `C[C@@H](c1c(F)cc2ncccc2c1F)c1cnc2ccc(N3CCN(C(N)=O)CC3)nn12` [Example 16, 4-{3-[(S)-1-(5,7-Difluoro-quinolin-6-yl)-ethyl]-imidazo[1,2-b]pyridazin-6-yl}-piperazine-1-carboxylic acid amide] the same measures were 8.77, 7.82 and 8.26.
As to `CC(c1c(F)cc2ncccc2c1F)c1cnc2ccc(N3CCN(C)C(=O)C3)nn12` (racemic) [Example 1, (rac)-4-{3-[1-(5,7-Difluoro-quinolin-6-yl)-ethyl]-imidazo[1,2-b]pyridazin-6-yl}-1-methyl-piperazin-2-one], the negative-log IC50 (pIC50) in experiment [1] is 8.07; in experiment [2] it was 8.04; on c-Met, more than 8.52.
As to `CC(=O)N1CCN(c2ccc3ncc(C(C)c4ccc5ncccc5c4F)n3n2)CC1` (racemic) [Example 48, (rac)-1-(4-{3-[1-(5-Fluoro-quinolin-6-yl)-ethyl]-imidazo[1,2-b]pyridazin-6-yl}-piperazin-1-yl)ethanone], the pIC50 in experiment [1] is 6.85; in experiment [2], 6.77; on c-Met it was 7.46.
For `CC(c1c(F)cc2ncccc2c1F)c1cnc2ccc(N3CC(=O)NCC3C)nn12` (racemic) [Example 23, (rac)-4-{3-[1-(5,7-Difluoro-quinolin-6-yl)-ethyl]-imidazo[1,2-b]pyridazin-6-yl}-5-methylpiperazin-2-one] the same measures were 7.82, 8.07 and 8.48.

In general, pIC50 refers to the IC50 on a negative log10 scale, so that one unit is a factor of ten.
